Measured values published in article PMC4608580, “Synthesis and Evaluation of Biological Activity of Antimicrobial – Pro-Proliferative Peptide Conjugates” (PLoS ONE, 2015).

Assays:
HaCaT keratinocytes = assay: Cell migration assay (in vitro scratch test); assay type: cell-based, human; conditions: 25 μg/mL, 24 h, serum-free DMEM, Mitomycin C 5 μg/mL, vs. control without peptide, three independent experiments
Experimental: Fibroblasts and keratinocytes were seeded (5x10^5 cells/well) in 6-well plates. When desired monolayer confluence was reached, cells were starved for 24 hours in serum-free DMEM. The monolayer was scratched then with 200μL-pipette tip. The floating cells and cell debris were removed by double washing in PBS, further replaced with a fresh serum-free medium. Wounded monolayers were incubated for the next 24 h in the presence of tested peptides used at concentration of 25 μg/mL and 5 μg/mL of Mitomycin C (Sigma Aldrich) to prevent proliferation. At the end of the experiment medium was removed and the cells were fixed with 3.7% PFA for 5 min, stained for the next 30 min with 0.05% crystal violet solution, washed several times with distilled water and the plates were left inverted for a couple of minutes to drain. The wounded areas were then photographed by means of Zeiss Observer D1 microscope equipped with camera AxioCam and analyzed with AxioVision software (Carl Zeiss, Germany). Migration activity of the cells treated with the tested peptides were expressed as the percentage of the wounded area with respect to the control probe (cell cultures without any of the peptide), assumed as 100%.
An in vitro scratch test was performed to investigate the effect of the analyzed compounds on keratinocytes and fibroblasts migration. Evaluation was based on the efficiency of the invasion of the monolayer cells to the prewounded area within 24 h after stimulation with the appropriate compound added at concetration of 25μg/mL.
Fig 2 Effect of the peptides on HaCaT keratinocytes and fibroblasts cell migration in the in vitro scratch test. HaCaT cells and fibroblasts were grown in 6-well plates until the 100% confluence was reached, then cells were starved for the next 12 hours in DMEM without 10% FCS and scratched once vertically with a 200μL pipette tip. After being washed two times with sterile PBS, a fresh portion of DMEM medium was added and cells were treated with the tested peptides applied at their optimal doses (25 μg/mL). Migration was analyzed after 24 hours by means of Zeiss Observer D1 microscope, wounding areas were analyzed with AxioVision software and expressed as the percentage of the wound width in comparison to the control sample (cells incubated in DMEM without FCS). Control+ FCS corresponds to the sample with cells incubated in the medium containing 10% FCS and was treated as the additional positive control. Data represent the mean ± SD of three independent experiments. *P < 0.05, **P < 0.01, ***P < 0.001 vs. control.

[1] = tested on: human primary dermal fibroblasts; assay: Cell proliferation assay (MTT); assay type: cell-based; conditions: 72 h, serum-free DMEM, peptide at 25 and 50 μg/mL
Experimental: Biopsies of healthy human skin were obtained aseptically from three donors (47–69 years old) undergoing circumcision after obtaining their written informed consent. All the procedures were approved by the Ethics Committee of Medical University of Gdansk (NKEBN/483/2011. Issued: 2011-12-19). The samples were washed several times with sterile PBS (Sigma-Aldrich, Germany) containing antibiotic (200 U/mL penicillin and 200 μg/mL streptomycin), after which, the subcutaneous tissue was cut off with a sharp blade. The resulting sheets were cut into small fragments, washed two times with sterile PBS and treated with 6 U/mL dispase II (BD, USA) overnight at 4°C to separate epidermis and dermis. The dermis was then digested with 1.0 mg/mL collagenase type I (from Clostridium histolyticum Sigma-Aldrich, Germany) for 2 hours at 37°C to isolate fibroblasts. Cells were used between the 2nd and 4th passage in all experiments.
In our study two kind of cells were used: immortalized human HaCaT keratinocytes (DKFZ Heidelberg, Germany) and primary dermal fibroblasts obtained from 3 healthy donors. Both types of the used cell lines were grown in Dulbecco's modified Eagle's medium (DMEM) (Sigma–Aldrich, Germany), that contained […] of glucose, […] of L-glutamine, sodium pyruvate and sodium bicarbonate. Additionally, medium was supplemented with 10% of FCS (fetal calf serum, Sigma-Aldrich, Germany), 100 U/mL of penicillin and 100 μg/mL streptomycin (Sigma-Aldrich, Germany). The cells were grown in culture dishes (BD, USA) under standard conditions in a humidified atmosphere with 5% CO2 at 37°C and medium was changed every 2 days.
The fibroblasts and keratinocytes were seeded at density of 4500 and 6000 cells per well, respectively, into 96-well plates suspended in a medium supplemented with 10% of FCS. After 24 h the media were exchanged with serum- and antibiotic- free DMEM and tested peptides dissolved in PBS were added yielding final concentration ranging from 1 to 50 μg/mL. Cells were incubated for the next 24 hours, when the medium was exchanged again and fresh portion of peptides (used at the same concentrations as previously) was added. Incubation was continued for the next 48 hours (the overall time of cell exposition to peptide was 72 h). […] After 15 min when the purple crystals of formazan were fully solubilized, absorbance was read at 570 nm with a plate reader. […]
Fig 1 Pro-proliferative activity of the tested peptides towards human keratinocytes (A) and fibroblasts (B). […] The data represents results of MTT assay expressed as the percentage of the cell viability in comparison to their control sample (cells incubated in serum-free DMEM without tested peptides), additional positive control corresponds to the cells incubated in the presence of 10% FCS. […]

How did the “Effect on keratinocyte migration (scratch test), in words” value (HaCaT keratinocytes) turn out when “YAGFLR-PEG-IKKILSKIKKLL-NH2 [DAL-PEG-DK5, conjugate of dalargin and DK5 joined by PEG-linker]” was run?
Its value is “neutral or slightly stimulative”.

What about the “Effect on fibroblast viability (MTT), in words” value [1] of the same substance?
Its value is “lowest cell viability”.

“YAGFLR-PEG-IKKILSKIKKLLK-NH2 [DAL-PEG-LK6, conjugate of dalargin and LK6 joined by PEG-linker]” was tested. Which “Effect on fibroblast viability (MTT), in words” value [1] did it give?
Its value is “lowest cell viability”.
